Assay [1] has as its system urinary 11-dehydrothromboxane B2 (TXB2). Put plainly: Test Example 2: urinary 11-dehydrothromboxane B2 by immunoenzyme assay, CDDP study. As to conditions: group mean, n = 50; drugs for at least half a year. Type of assay: in vivo, human. An excerpt:
This study adopted a reviewing method, and the normal value referred to the research results about aspirin resistance in Australia.
All 178 patients, including 140 males and 38 females, came from the retired personnel of the First Sanatorium, Bafenbu Sanatorium. The patients were aged 70˜87 and the average age was 77.1. 170 patients were randomly selected for sample test and the number of patients whose data could be accepted was 150 (IC20˜IC80). Of those enrolled in the study, in addition to aspirin resistance, 91 patients were afflicted with hypertension, 25 patients were afflicted with hyperlipidemia, 32 patients were afflicted with diabetes, 139 patients were afflicted with coronary heart disease, and 57 patients were afflicted with cerebrovascular diseases. […] All the patients administered drugs for at least half a year before sampling.
The urinary sample was the middle section of the first urina of the day. The urinary sample was placed in the liquid nitrogen immediately after sampling and stored at −86[…] in a low-temperature refrigerator. The urinary 11-dehydrothromboxane B2 (TXB2) was determined by immunoenzyme assay using the reagent kit of Cayman Chemical company. All the experiments were completed in the Biological Institute of Tasly Research Academy. Information about patient grouping was double-blind for researchers and statisticians. […]

For assay [2] the test system is unchanged. In words: Test Example 3: urinary 11-dehydrothromboxane B2 by immunoenzyme assay, Compound Danshen Tablets study. Type of assay: in vivo, human. To be noted: group mean, n = 50; cardiovascular outpatients with tendency of aspirin resistance; drugs for at least half a year.
Source text: 150 patients in this study were all selected from the cardiovascular outpatients having the tendency of aspirin resistance. All the patients, including 80 males and 70 females, aged between 70˜85, with the average age of 77. To treat aspirin resistance, 50 patients administered aspirin (aspirin group), 50 patients administered Compound Danshen Tablets (CDT group), and 50 patients administered aspirin and CDT simultaneously (combination therapy group). All the patients administered drugs for at least half a year before sampling.
The urinary sample was the middle section of the first urina of the day. The urinary sample was placed in the liquid nitrogen immediately after sampling and stored at −86□ in a low-temperature refrigerator. The urinary 11-dehydrothromboxane B2 (TXB2) was determined by immunoenzyme assay using the reagent kit of Cayman Chemical company. […] Information about patient grouping was double-blind for researchers and statisticians.

Here are results for 1 molecule from patent US20080305189A1, “TREATMENT OF ASPIRIN RESISTANCE WITH RADIX SALVIAE MILTIORRHIZAE, ITS EXTRACT AND COMPOSITION” (Tianjin Tasly Pharmaceutical Co., Ltd., priority 2003, published 2008).

As to `CC(=O)Oc1ccccc1C(=O)O` [Aspirin, aspirin], the “Urinary 11-dehydro TXB2, X ± SD” value in assay [1] is 25.02 ± 10.51 ng/mmol; in assay [2], 25.05 ± 10.42 ng/mmol.
